Results taken from ChEMBL document CHEMBL1201862, “PubChem BioAssay data set” (2004).
Calls of active or inactive are those of the source.

Tests used:
[1] = inhibitors of intracellular T. cruzi replication, confirmation, NIH3T3 host cells, beta-gal luminescence (AID 2044); assay type: functional, cell-based;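 further: intracellular parasites grown in NIH/3T3 mouse fibroblasts as host cells; luminescent beta-galactosidase reporter signal from transgenic T. cruzi replicating inside host cells; inhibitors lower the luminescence signal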
[2] = cytotoxicity toward NIH3T3 fibroblasts, dose response, counter-screen, cell-based, ATP luminescence, mouse fibroblasts (AID 2010); assay type: functional;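 further: cells exposed to compound for about 90 hours before reading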
Vero [3] = assay: cells; assay type: functional; settings: Chlorocebus sabaeus
Cytochrome P450 2C9 [4] = biological target: T1, Cytochrome P450 2C9 (Homo sapiens, UniProt P11712)
[5] = NIH-3T3 fibroblast cytotoxicity, dose response, cytotoxicity control, cell-based, fluorescence, Alamar Blue, secondary assay (AID 2327); assay type: functional;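 further: NIH-3T3 mouse fibroblasts cultured with fluconazole at 8 µg/mL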
[6] = C. albicans growth with fluconazole, confirmation, fluorescence, retest (AID 2467); assay type: functional, cell-based
[7] = biological target: T2, Serine/threonine-protein phosphatase (Candida dubliniensis (strain CD36 / CBS 7987 / NCPF 3949 / NRRLY-17841) (Yeast), UniProt B9W6M3); assay: calcineurin pathway inhibitors in yeast reporter, dose response, S. cerevisiae, CDRE-lacZ, luminescence, secondary (AID 2388); assay type: functional, cell-based;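 further: yeast reporter cells carrying a calcineurin-responsive lacZ construct stimulated with calcium chloride; luminescent beta-galactosidase reporter signal in whole cells rather than isolated phosphatase activity; potency for inhibition where a drop in reporter signal means calcineurin blockade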
T2 sequence (B9W6M3 whole entry): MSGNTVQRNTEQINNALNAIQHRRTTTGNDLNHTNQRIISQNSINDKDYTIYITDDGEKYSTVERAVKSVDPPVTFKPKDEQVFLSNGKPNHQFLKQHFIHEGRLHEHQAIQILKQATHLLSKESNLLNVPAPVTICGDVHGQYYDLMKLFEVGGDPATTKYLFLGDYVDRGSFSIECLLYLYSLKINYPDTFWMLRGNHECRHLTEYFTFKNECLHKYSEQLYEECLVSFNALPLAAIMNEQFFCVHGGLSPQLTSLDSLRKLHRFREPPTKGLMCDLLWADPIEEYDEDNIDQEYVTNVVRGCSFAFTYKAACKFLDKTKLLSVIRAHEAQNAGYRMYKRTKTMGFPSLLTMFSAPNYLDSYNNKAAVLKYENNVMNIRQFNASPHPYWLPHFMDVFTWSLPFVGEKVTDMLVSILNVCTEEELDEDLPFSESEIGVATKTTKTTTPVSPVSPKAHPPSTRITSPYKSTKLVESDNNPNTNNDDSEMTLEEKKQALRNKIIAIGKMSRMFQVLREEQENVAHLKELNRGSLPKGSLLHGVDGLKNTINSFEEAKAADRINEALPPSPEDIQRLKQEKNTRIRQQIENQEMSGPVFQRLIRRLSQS

[8] = biological target: ATP-dependent molecular chaperone HSP82 (Candida albicans (strain WO-1) (Yeast), UniProt C4YTQ8); assay: loss of DOC-induced GRE-beta-galactosidase reporter signal, dose response, Hsp90 inhibitor project, S. cerevisiae, luminescence (AID 2400); assay type: functional, cell-based;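 further: beta-galactosidase luminescence from glucocorticoid response element reporter as proxy for Hsp90 function; inhibitor potency where signal loss means Hsp90 inhibition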
[9] = biological target: T3, Polyadenylate-binding protein 1 (Homo sapiens, UniProt P11940); assay: PABP1 MLLE–PAM2 interaction inhibitors, dose response, miRNA deadenylation inhibitor project, biochemical, fluorescence polarization, Cy5-PAM2 peptide, secondary (AID 602260); assay type: functional; settings: read-out: IC50_Mean
[10] = biological target: T3, Polyadenylate-binding protein 1; assay: PABP1 MLLE–PAM2 binding inhibitor potency, dose response, biochemical, fluorescence polarization, FITC-PAM2 peptide (AID 602259); assay type: functional; settings: read-out: IC50_Mean
Cytochrome P450 3A4 = Cytochrome P450 3A4 (Homo sapiens, UniProt P08684);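 further: CYP3A4 tested as one member of a cytochrome P450 panel screen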
Escherichia coli = assay: microbe, parasite or virus in culture
Nonstructural protein 1 = Nonstructural protein 1 (Influenza A virus, UniProt Q194T2); assay type: functional, Influenza A virus (A/California/07/2009(H1N1))
Vero [11] = assay: cells; assay type: functional, cell-based; settings: Chlorocebus sabaeus
INS1 = assay: beta cell apoptosis inhibitors, cytokine rescue, dose response, luminescence, retest (AID 449756); assay type: functional, cell-based; settings: Rattus norvegicus;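 further: cell death triggered by IL-1 beta plus TNF-alpha plus IFN-gamma mixture; protective hits raise ATP signal compared with cytokine alone wells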
[12] = microbe, parasite or virus in culture; assay type: functional; settings: Mycobacterium tuberculosis
[13] = THP-1 cell cytotoxicity, dose response, cytotoxicity control for non-replicating M. tuberculosis project (AID 489025); assay type: functional
[14] = HepG2 cell cytotoxicity, dose response, cytotoxicity control for non-replicating M. tuberculosis project (AID 489018); assay type: functional; settings: Mycobacterium tuberculosis
cells = assay type: functional
[15] = inhibitors of firefly luciferase expression or activity, dose response, H4 neuroglioma cells, luminescence (AID 1990); assay type: functional, cell-based
BJ [16] = assay: cytotoxicity toward BJ-TERT fibroblasts, dose response, cell-based, RAS-independent, luminescence (AID 1933); assay type: functional; settings: Homo sapiens
[17] = Luminescence Cell-Based Dose Response HTS to Identify Inhibitors of 5'UTR Stem-Loop Driven Prion Protein mRNA Translation in H4 Neuroglioblastoma Cells. [Related pubchem assays: 1827 (Project Summary), 1813 (Primary HTS)]; assay type: functional
[18] = inhibitors of SNCA 5'UTR-driven reporter translation, confirmation, H4 neuroglioma cells, luminescence (AID 1988); assay type: functional, cell-based
BJ [19] = assay: cells; assay type: functional, cell-based; settings: Homo sapiens
BJ [20] = assay: cytotoxicity toward BJ-TERT-LT-ST fibroblasts, dose response, cell-based, RAS-independent, luminescence (AID 1935); assay type: functional; settings: Homo sapiens;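 further: BJ fibroblasts immortalized with TERT plus LT and ST oncogenes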
[21] = cytotoxicity toward DRD oncogenic fibroblasts, dose response, cell-based, non-viral oncogenic, luminescence (AID 1934); assay type: functional; settings: Homo sapiens
Cytochrome P450 2C19 = Cytochrome P450 2C19 (Homo sapiens, UniProt P33261); assay: Cytochrome panel assay with activity outcomes. Panel member name: p450-cyp2c19 Compounds with AC50 equal or less than 10 uM are considered active; assay type: functional; settings: read-out: AC50
[22] = biological target: T4, Corticotropin-releasing factor receptor 2/Corticotropin-releasing factor-binding protein (Homo sapiens, UniProt P24387+Q13324); assay: Dose Response confirmation of uHTS hits for small molecule antagonists of the CRF-binding protein and CRF-R2 receptor complex.; assay type: functional; settings: read-out: IC50_Mean
T4 sequence (Q13324 whole entry): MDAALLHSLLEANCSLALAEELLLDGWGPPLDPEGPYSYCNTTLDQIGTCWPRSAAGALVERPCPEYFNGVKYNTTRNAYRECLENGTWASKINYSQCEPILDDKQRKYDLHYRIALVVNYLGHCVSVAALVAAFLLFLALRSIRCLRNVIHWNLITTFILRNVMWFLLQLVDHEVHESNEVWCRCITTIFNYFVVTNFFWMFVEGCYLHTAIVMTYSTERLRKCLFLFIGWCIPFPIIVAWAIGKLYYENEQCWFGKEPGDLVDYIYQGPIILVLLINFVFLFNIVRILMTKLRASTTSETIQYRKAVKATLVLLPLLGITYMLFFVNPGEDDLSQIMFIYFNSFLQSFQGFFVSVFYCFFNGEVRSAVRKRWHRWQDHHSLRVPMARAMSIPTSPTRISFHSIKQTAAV
T4 sequence (P24387 whole entry): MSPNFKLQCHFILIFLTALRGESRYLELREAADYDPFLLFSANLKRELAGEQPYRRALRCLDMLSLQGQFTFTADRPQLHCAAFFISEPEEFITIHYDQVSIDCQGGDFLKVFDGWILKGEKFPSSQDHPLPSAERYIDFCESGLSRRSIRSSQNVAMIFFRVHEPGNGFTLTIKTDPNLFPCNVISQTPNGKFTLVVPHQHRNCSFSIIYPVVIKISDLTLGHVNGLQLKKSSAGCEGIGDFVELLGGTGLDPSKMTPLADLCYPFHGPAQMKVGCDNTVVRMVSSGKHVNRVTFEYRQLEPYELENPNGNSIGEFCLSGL

[23] = biological target: T4, Corticotropin-releasing factor receptor 2/Corticotropin-releasing factor-binding protein; assay: activators of CRF receptor 2 with binding protein – uHTS hits, confirmation (AID 602473); assay type: functional; settings: read-out: EC50_Mean
Cytochrome P450 2C9 [24] = biological target: T1, Cytochrome P450 2C9; remark: listed apart in the source
Cytochrome P450 2D6 = Cytochrome P450 2D6 (Homo sapiens, UniProt P10635);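 further: CYP2D6 member of a cytochrome P450 panel assay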
Sequence of Cytochrome P450 2D6 (P10635 whole entry): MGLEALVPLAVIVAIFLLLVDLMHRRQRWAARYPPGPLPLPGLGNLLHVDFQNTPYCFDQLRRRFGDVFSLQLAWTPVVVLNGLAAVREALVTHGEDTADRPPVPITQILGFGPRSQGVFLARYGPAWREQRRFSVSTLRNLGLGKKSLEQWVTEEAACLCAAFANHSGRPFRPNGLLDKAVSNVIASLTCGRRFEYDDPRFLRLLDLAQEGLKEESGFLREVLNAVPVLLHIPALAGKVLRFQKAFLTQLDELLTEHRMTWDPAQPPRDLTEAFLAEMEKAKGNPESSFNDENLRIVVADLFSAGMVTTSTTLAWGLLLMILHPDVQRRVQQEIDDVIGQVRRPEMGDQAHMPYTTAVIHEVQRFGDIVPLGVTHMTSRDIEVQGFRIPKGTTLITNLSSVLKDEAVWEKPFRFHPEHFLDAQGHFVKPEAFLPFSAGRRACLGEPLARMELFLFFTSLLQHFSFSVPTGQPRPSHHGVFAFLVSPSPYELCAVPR

Sequence of Cytochrome P450 2C19 (P33261 whole entry): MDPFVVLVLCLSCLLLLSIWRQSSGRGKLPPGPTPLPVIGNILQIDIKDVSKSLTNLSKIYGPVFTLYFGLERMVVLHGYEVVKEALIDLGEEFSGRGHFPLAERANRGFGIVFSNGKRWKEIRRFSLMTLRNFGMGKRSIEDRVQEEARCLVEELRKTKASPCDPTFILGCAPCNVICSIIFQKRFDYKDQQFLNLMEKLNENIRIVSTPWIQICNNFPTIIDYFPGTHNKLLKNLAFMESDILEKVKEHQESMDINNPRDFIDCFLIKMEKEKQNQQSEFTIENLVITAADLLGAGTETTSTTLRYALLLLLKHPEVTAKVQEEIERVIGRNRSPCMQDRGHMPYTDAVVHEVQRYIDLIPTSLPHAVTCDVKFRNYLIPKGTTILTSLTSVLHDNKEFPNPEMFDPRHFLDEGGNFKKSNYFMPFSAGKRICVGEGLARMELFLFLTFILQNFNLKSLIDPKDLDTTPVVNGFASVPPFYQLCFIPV
T1 sequence (P11712 whole entry): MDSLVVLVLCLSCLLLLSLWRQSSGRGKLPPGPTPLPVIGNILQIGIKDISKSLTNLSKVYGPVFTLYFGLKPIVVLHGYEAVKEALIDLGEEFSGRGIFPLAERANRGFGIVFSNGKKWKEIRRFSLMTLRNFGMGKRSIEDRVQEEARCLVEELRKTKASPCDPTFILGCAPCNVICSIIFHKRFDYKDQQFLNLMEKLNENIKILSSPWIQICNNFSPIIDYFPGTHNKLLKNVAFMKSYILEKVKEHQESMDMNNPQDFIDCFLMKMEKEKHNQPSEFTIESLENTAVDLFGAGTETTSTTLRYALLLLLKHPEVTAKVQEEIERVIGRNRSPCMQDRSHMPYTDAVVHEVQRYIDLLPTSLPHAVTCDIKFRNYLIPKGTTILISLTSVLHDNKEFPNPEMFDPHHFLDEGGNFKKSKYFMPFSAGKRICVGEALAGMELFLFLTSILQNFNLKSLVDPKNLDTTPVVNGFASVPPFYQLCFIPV
Sequence of Nonstructural protein 1 (Q194T2 whole entry): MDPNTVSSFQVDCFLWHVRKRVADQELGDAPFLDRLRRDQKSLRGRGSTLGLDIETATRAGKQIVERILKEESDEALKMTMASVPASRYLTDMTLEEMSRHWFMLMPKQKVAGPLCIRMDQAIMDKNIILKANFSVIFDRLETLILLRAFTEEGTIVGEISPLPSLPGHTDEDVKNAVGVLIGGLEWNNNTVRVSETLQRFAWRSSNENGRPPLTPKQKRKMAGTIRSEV
Sequence of Cytochrome P450 3A4 (P08684 whole entry): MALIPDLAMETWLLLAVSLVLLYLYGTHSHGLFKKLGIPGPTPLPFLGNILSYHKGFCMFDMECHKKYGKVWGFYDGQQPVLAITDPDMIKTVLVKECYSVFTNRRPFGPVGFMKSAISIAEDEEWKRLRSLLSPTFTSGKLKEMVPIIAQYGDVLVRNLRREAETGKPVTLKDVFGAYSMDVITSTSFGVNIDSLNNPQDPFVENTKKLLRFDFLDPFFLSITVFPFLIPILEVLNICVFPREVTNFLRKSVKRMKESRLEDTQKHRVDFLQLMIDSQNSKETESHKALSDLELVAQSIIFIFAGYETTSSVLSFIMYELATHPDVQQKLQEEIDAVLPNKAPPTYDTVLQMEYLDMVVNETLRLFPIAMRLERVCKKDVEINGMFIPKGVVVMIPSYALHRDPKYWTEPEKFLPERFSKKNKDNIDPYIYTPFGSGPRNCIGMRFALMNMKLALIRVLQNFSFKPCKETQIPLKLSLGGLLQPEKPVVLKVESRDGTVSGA
Sequence of ATP-dependent molecular chaperone HSP82 (C4YTQ8 whole entry): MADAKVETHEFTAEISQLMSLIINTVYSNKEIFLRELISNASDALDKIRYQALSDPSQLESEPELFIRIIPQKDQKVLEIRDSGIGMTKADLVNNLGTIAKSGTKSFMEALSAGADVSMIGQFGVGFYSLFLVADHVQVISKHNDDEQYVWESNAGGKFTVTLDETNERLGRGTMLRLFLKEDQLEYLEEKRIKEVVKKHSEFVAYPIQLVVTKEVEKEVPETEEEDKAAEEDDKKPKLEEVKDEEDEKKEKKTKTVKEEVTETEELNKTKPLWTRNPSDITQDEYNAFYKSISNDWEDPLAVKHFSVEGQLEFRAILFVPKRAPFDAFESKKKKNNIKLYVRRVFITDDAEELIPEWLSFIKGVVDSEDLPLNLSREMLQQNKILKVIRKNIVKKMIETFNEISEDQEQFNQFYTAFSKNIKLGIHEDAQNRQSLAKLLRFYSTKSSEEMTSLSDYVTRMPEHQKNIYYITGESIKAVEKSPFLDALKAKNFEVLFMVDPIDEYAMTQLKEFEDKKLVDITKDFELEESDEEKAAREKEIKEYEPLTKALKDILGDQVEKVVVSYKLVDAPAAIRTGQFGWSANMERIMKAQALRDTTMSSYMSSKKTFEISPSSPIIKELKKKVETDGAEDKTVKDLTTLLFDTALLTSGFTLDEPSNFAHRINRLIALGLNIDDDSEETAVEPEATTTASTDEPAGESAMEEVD
T3 sequence (P11940 whole entry): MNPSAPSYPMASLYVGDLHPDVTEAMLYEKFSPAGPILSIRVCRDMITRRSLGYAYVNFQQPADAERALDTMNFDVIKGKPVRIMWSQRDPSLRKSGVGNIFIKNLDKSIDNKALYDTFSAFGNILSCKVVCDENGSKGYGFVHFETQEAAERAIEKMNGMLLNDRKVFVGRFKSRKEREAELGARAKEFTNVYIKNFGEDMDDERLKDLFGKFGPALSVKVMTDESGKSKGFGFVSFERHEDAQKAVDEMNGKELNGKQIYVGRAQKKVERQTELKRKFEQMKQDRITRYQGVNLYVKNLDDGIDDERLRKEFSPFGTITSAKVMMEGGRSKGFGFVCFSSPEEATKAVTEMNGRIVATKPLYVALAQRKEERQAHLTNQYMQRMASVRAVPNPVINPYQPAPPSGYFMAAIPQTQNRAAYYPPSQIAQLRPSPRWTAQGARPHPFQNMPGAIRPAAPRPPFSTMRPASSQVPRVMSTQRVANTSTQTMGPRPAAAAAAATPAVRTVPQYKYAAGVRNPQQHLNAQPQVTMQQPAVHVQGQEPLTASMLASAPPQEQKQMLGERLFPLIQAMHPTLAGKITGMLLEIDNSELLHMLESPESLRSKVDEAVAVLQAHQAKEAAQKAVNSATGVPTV

SMILES: CC1C(=O)C(C)C(c2ccc(Br)cc2)NC1c1ccc(Br)cc1 (stereo not drawn)
- EC50 [1]: 1.11 µM (active)
- EC50 [2]: > 60 µM (not active)
- CC50 (Vero [3]): > 25 µM (active)

SMILES: CCCCCCCCCCCCCCCCCC(=O)O[C@H](CC(=O)O)C[N+](C)(C)C
- AC50 (Cytochrome P450 2C9 [4]): inconclusive

SMILES: O=C(c1ccc([N+](=O)[O-])o1)N1CCc2ccccc21
- CC50 (Vero [3]): > 25 µM (active)

SMILES: CCCCc1c(O)n(-c2ccccc2OC)c(SCC(=O)Nc2cccc3ccccc23)nc1=O
- EC50 [5]: > 160 µM (inconclusive)
- EC50 [6]: 2.03 µM (active)
- EC50 [7]: > 180 µM (inactive)
- EC50 [8]: > 160 µM (inactive)
- IC50 [9]: > 66 µM (inactive)
- IC50 [10]: > 66 µM (inactive)

SMILES: O=S(=O)(c1ccccc1)N1CCC2(CCN(C(c3ccccc3)c3ccccc3)CC2)CC1
- AC50 (Cytochrome P450 3A4): inconclusive

SMILES: O=C1CN(S(=O)(=O)c2ccccc2C(F)(F)F)CCN1
- AC50 (Escherichia coli): 28.5 µM (active)

SMILES: CN(C)c1ncc2nc(-c3ccc(F)cc3)c(=O)n(Cc3ccc(F)cc3)c2n1
- AC50 (Cytochrome P450 3A4): inconclusive
- AC50 (Cytochrome P450 2C9 [4]): inconclusive

SMILES: NC(=O)C1CCN(c2oc(-c3ccccc3)nc2S(=O)(=O)c2ccc(Br)cc2)CC1
- IC50 (Nonstructural protein 1): > 100 µM (active)

SMILES: c1ccc(COc2nsnc2N2CCOCC2)cc1
- IC50 (Nonstructural protein 1): > 100 µM (active)

SMILES: O=C(O)C1CCC(=O)N(C2CC2)C1c1ccccc1 (stereo not drawn)
- AC50 (Cytochrome P450 3A4): inconclusive

SMILES: COc1cccc(NC(=O)c2cccc(C(=O)Nc3cccc(OC)c3)n2)c1
- AC50 (Escherichia coli): 32.4 µM (active)

SMILES: CCOC(=O)c1c(NC(=O)c2c(-c3ccccc3)noc2C)sc(C)c1-c1ccccc1
- EC50 [1]: 0.805 µM (active)
- EC50 [2]: 12.5 µM (active)
- IC50 (Vero [11]): < 0.05 µM (active)

SMILES: CCCCc1ccc(NC(=N)Nc2nc(C)cc(C)n2)cc1
- EC50 [1]: 1.71 µM (active)
- EC50 [2]: 9.01 µM (active)
- AC50 (INS1): 4.27 µM (active)
- CC50 (Vero [3]): 7.63 µM (active)

SMILES: CC1=NN(C(=O)c2ccc(Br)cc2)C(O)(c2ccccc2)C1 (stereo not drawn)
- CC50 [12]: > 40 µM (active)
- CC50 [13]: 22.1 µM (active)
- CC50 [14]: > 20 µM (active)
- IC50 (cells): 22.4 µM (active)

SMILES: CN1CCN(c2ccc([N+](=O)[O-])cc2C(=O)c2ccc(Br)cc2)CC1
- EC50 [15]: 11.6 µM (active)
- EC50 (BJ [16]): 4.96 µM (active)
- EC50 [17]: 12.6 µM (active)
- EC50 [18]: 4.21 µM (active)
- EC50 (BJ [19]): 28.9 µM (active)
- EC50 (BJ [20]): 5.07 µM (inconclusive)
- EC50 [21]: 4.11 µM (active)

SMILES: CCCNc1nc(NCC)nc(OC)n1
- AC50 (Cytochrome P450 2C19): 17.8 µM (inconclusive)
- AC50 (Cytochrome P450 2C9 [4]): inconclusive

SMILES: COCCNCC(=O)NC12CC3CC(CC(C3)C1)C2
- IC50 (Vero [11]): 16.2 µM (active)

SMILES: CCOC(=O)C1C(=O)C=C(c2ccc(C)cc2)CC1c1ccco1 (stereo not drawn)
- AC50 (Cytochrome P450 3A4): inconclusive

SMILES: O=C(CCCc1ccccc1)N1CCN(c2ccc([N+](=O)[O-])cc2)CC1
- IC50 [22]: > 47.1 µM (inactive)
- EC50 [23]: > 53 µM (inactive)
- AC50 (Cytochrome P450 3A4): inconclusive

SMILES: Cc1cc(C(=O)OCC(=O)NCc2ccco2)c(C)n1-c1ccc(F)cc1
- EC50 [15]: > 120 µM (not active)
- EC50 (BJ [16]): 9.71 µM (inconclusive)
- EC50 [17]: 9.52 µM (active)
- EC50 [18]: 4.93 µM (active)
- EC50 (BJ [19]): 36 µM (active)
- EC50 (BJ [20]): 4.61 µM (active)
- EC50 [21]: 16.7 µM (active)

SMILES: Cc1ccc(S(=O)(=O)Oc2ccc(/C=C(/NC(=O)c3ccccc3)C(=O)Nc3ccccc3)cc2)cc1
- AC50 (Cytochrome P450 2C19): 0.316 µM (inconclusive)
- AC50 (Cytochrome P450 2C9 [24]): 0.316 µM (inconclusive)
- AC50 (Cytochrome P450 3A4): inconclusive

SMILES: C=CCc1cccc2cc(C(=O)N(CC)CC)c(=O)oc12
- AC50 (Cytochrome P450 2C19): 28.2 µM (inconclusive)
- AC50 (Cytochrome P450 2C9 [4]): inconclusive

SMILES: O=S(=O)(c1ccc(Cl)cc1)N1CCN(C(=S)Nc2ccc(F)c(Cl)c2)CC1
- IC50 (Vero [11]): > 25 µM (active)
- CC50 (Vero [3]): > 25 µM (active)

SMILES: Cn1c(=O)c2c(nc(NN/C=C3/C(=O)NC(=S)N(c4ccccc4)C3=O)n2C)n(C)c1=O
- IC50 (Nonstructural protein 1): 20.9 µM (active)

SMILES: CC(=O)NC1=NN(C(C)=O)C2(S1)C(=O)N(C(C)C)c1ccc(C)cc12 (stereo not drawn)
- AC50 (Escherichia coli): > 150 µM (inactive)

SMILES: C=CC/N=c1/scc(-c2ccccc2)n1/N=C/c1ccccn1
- IC50 (Vero [11]): 0.98 µM (active)

SMILES: C=CCn1c(N)nc2ccccc21
- EC50 [5]: > 160 µM (inactive)
- EC50 [6]: 1.55 µM (active)
- EC50 [7]: > 180 µM (inactive)
- EC50 [8]: > 160 µM (inactive)

SMILES: O=[N+]([O-])c1ccc(N2CCOCC2)cc1NC(c1ccccc1)c1ccccc1
- IC50 (Nonstructural protein 1): > 100 µM (active)

SMILES: COc1ccccc1NC(=O)CN1CCC(C(=O)c2ccc(F)cc2)CC1
- AC50 (Cytochrome P450 2D6): 25.1 µM (inconclusive)
- AC50 (Cytochrome P450 2C9 [4]): inconclusive
